Experimental data: publication PMC6692352, “DF2726A, a new IL-8 signalling inhibitor, is able to counteract chemotherapy-induced neuropathic pain” (Scientific Reports, 2019)

Key:
[1] = test system: oxaliplatin-induced cold allodynia; experiment: Oxaliplatin-induced cold allodynia (acetone test); format: in vivo, male Wistar rats; details: 30 mg/kg os for 24 days; from day 5 (P < 0.01) to final test day (P < 0.001)
Description: Behavioural tests were performed on male Wistar rats (200–250 g, Harlan, Italy) housed in the animal care facility at the Department of Pharmacy of the University of Naples Federico II, Italy, as previously described. Animals were housed, in a group of five, in a room with controlled temperature (22 ± 1 °C), humidity (60 ± 10%) and light (12 h per day); food and water were available ad libitum. All animals were weighted on the day of each treatment. All behavioural tests were performed between 09:00 and 17:00 h, and the animals were used only once. Animal care and manipulations were conducted in conformity with International and National law and policies (EU Directive 2010/63/EU for animal experiments, ARRIVE guidelines, and the Basel declaration including the 3R concept). The procedures reported here were approved by the Institutional Committee on the Ethics of Animal Experiments (CVS) of the University of Naples Federico II and by Ministero della Salute under protocol no. 2014-00884607. […]
Cold sensitivity was measured as the number of foot withdrawal responses after application of acetone to the dorsal surface of the paw[8],[22]. […] The mean of paw withdrawal (expressed in numbers) was determined from an average of six separate measurements. Cold responses were measured before (day -1) and then 3, 5, 7, 10, 14 and 21 days after first administration of oxaliplatin or vehicle. […]

[2] = pKa, logD7.4, logP (SiriusT3 titration); format: physicochemical
Description: vehicle were seeded in the upper compartment. The two compartments were separated by 5 µm pre-size polycarbonate filter (polyvinylpyrrolidone-free for PMN chemotaxis). The chamber was […]
Physicochemical characterization […]
and a turbidity-sensing device. […]
water/HBSS to a final concentration of 10 μM. Cell membrane homogenates (48 μg protein) were […]

GFAP = experiment: Western blot of DRG of oxaliplatin rats, astrocyte marker GFAP; format: in vivo, male Wistar rats; details: 30 mg/kg os; p < 0.01 vs OXA rats
Description: Animals were sacrificed and dorsal root ganglia (DRG) (L4-L6) were removed and stored at […]. They were homogenized on ice-cold lysis buffer [20 mM Tris–HCl (pH 7.5), 10 mM NaF, 150 mM NaCl, 1% Nonidet P-40, 1 mM phenylmethylsulfonyl fluoride, 1 mM Na3VO4, leupeptin and trypsin inhibitor 10 μg/mL; 20 µl/sample, as previously described.
After 1 h, tissue lysates were obtained by centrifugation at 20,000 g for 15 min at 4 °C. Protein concentrations were estimated by the Bio-Rad protein assay using bovine serum albumin as standard.
DRG lysate proteins (30 μg) were dissolved in Laemmli sample buffer, boiled for 5 min, and separated on SDS-polyacrylamide gel elctrophoresis and transferred onto nitrocellulose membrane (240 mA for 40 min at room temperature). […] The protein bands were scanned and densitometrically analyzed with a model GS-700 imaging densitometer (Bio-Rad Laboratories, Milan, Italy). […]

Metabolic stability, rat = format: in vitro ADME; details: Test conc: 2.5 µM
Text: (§1) Table 1 Physicochemical and in Vitro ADME Properties of DF2726A. | column: DF2726A

Metabolic stability, dog = format: in vitro ADME; details: Test conc: 2.5 µM
Text: as §1

CYP 2C19 = CYP 2C19 (Homo sapiens, UniProt P33261); experiment: CYP inhibition 2C19; format: in vitro ADME
Sequence of CYP 2C19 (P33261 whole entry): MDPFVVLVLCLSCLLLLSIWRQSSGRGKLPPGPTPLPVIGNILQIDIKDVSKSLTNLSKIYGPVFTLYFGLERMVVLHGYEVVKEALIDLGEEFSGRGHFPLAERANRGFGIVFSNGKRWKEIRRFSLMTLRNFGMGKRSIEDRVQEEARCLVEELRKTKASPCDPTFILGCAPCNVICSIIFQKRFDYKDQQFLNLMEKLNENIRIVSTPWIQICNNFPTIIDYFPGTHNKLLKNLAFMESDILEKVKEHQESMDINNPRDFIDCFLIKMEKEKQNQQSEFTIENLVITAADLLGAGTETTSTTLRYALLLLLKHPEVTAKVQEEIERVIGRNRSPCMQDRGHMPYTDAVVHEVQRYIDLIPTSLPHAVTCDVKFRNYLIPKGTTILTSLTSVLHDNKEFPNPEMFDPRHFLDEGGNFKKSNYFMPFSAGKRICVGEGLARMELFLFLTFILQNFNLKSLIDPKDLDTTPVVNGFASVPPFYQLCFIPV
Text: as §1

In the case of `CC(C)(C(=O)O)c1ccc(Nc2nc(C(F)(F)F)cs2)cc1` [DF2726A], the “Effect on oxaliplatin-induced cold allodynia (acetone paw withdrawal responses)” value [1] is reported as “marked attenuation of cold allodynia”, the logP [2] is reported as 4.3 and the pKa ([2]; 0.15 M KCl, 25 ± 1°C) is reported as 4.14. The logD7.4 ([2]; pH 7.4) was 0.75, the “GFAP expression in DRG of oxaliplatin rats” value (GFAP) was “significantly reduced the expression” and the Metabolic stability rat (Metabolic stability, rat) was 15.3 µL/min/10^6 cells. For the same compound, the Metabolic stability dog (Metabolic stability, dog) was 7.2 µL/min/10^6 cells and the IC50 (CYP 2C19) was > 30 µM.
